According to the NIST ThermoML archive (doi:10.1021/je0302304):
± gives the expanded uncertainty stated by the source.

Assay: xn = mol fraction of the nth substance listed
Settings: 101.32 kPa, Liquid

COCCOCCOCCOC [2,5,8,11-tetraoxadodecane] + CCO
mass density [kg/m3]
Settings	288.15 K	298.15 K	308.15 K	318.15 K
x1 = 0.0045	796.7 ± 0.5	788.2 ± 0.5	779.5 ± 0.5	770.6 ± 0.5
x1 = 0.0085	799.3 ± 0.4	790.7 ± 0.5	782 ± 0.5	773.1 ± 0.5
x1 = 0.0125	801.7 ± 0.4	793.2 ± 0.5	784.4 ± 0.5	775.5 ± 0.5
x1 = 0.0165	804.2 ± 0.4	795.6 ± 0.5	786.8 ± 0.5	778 ± 0.5
x1 = 0.0205	806.6 ± 0.4	798 ± 0.4	789.2 ± 0.5	780.3 ± 0.5
x1 = 0.0305	812.4 ± 0.4	803.7 ± 0.4	794.9 ± 0.5	786 ± 0.5
x1 = 0.05	823 ± 0.4	814.2 ± 0.4	805.4 ± 0.4	796.4 ± 0.5
x1 = 0.1	846.7 ± 0.4	837.7 ± 0.4	828.8 ± 0.4	819.7 ± 0.4
x1 = 0.15	866.4 ± 0.3	857.3 ± 0.4	848.3 ± 0.4	839 ± 0.4
x1 = 0.2	882.9 ± 0.3	873.6 ± 0.3	864.5 ± 0.4	855.2 ± 0.4
x1 = 0.25	896.9 ± 0.3	887.7 ± 0.3	878.6 ± 0.3	869.2 ± 0.4
x1 = 0.3	909.2 ± 0.3	900 ± 0.3	890.7 ± 0.3	881.4 ± 0.3
x1 = 0.35	919.8 ± 0.3	910.5 ± 0.3	901.3 ± 0.3	891.9 ± 0.3
x1 = 0.4	929.2 ± 0.3	919.8 ± 0.3	910.5 ± 0.3	901.1 ± 0.3
x1 = 0.4499	937.4 ± 0.3	928 ± 0.3	918.6 ± 0.3	909.2 ± 0.3
x1 = 0.5	944.8 ± 0.3	935.3 ± 0.3	925.9 ± 0.3	916.4 ± 0.3
x1 = 0.55	951.4 ± 0.3	941.9 ± 0.3	932.4 ± 0.3	922.9 ± 0.3
x1 = 0.6	957.3 ± 0.3	947.7 ± 0.3	938.3 ± 0.3	928.8 ± 0.3
x1 = 0.65	962.7 ± 0.3	953.1 ± 0.3	943.7 ± 0.3	934.2 ± 0.3
x1 = 0.7	967.5 ± 0.3	958 ± 0.3	948.6 ± 0.3	939 ± 0.3
x1 = 0.75	972 ± 0.3	962.4 ± 0.3	953 ± 0.3	943.5 ± 0.3
x1 = 0.7999	976.1 ± 0.3	966.5 ± 0.3	957.1 ± 0.3	947.5 ± 0.4
x1 = 0.8499	979.9 ± 0.4	970.3 ± 0.4	960.8 ± 0.4	951.3 ± 0.4
x1 = 0.8998	983.4 ± 0.4	973.8 ± 0.4	964.3 ± 0.4	954.8 ± 0.4
x1 = 0.9498	986.7 ± 0.4	977.1 ± 0.4	967.6 ± 0.4	958.1 ± 0.4
x1 = 1	989.7 ± 0.4	980.1 ± 0.4	970.7 ± 0.4	961.1 ± 0.4

COCCOC [1,2-dimethoxyethane] + CCO
mass density [kg/m3]
Settings	288.15 K	298.15 K	308.15 K	318.15 K
x1 = 0.0045	794.5 ± 0.5	786 ± 0.5	777.3 ± 0.5	768.5 ± 0.5
x1 = 0.0086	795.2 ± 0.4	786.6 ± 0.5	777.9 ± 0.5	769 ± 0.5
x1 = 0.0125	795.8 ± 0.4	787.1 ± 0.5	778.4 ± 0.5	769.6 ± 0.5
x1 = 0.0165	796.4 ± 0.4	787.7 ± 0.5	779 ± 0.5	770.1 ± 0.5
x1 = 0.0205	797 ± 0.4	788.3 ± 0.5	779.6 ± 0.5	770.7 ± 0.5
x1 = 0.0305	798.5 ± 0.4	789.8 ± 0.5	781 ± 0.5	772 ± 0.5
x1 = 0.05	801.3 ± 0.4	792.5 ± 0.5	783.6 ± 0.5	774.6 ± 0.5
x1 = 0.1	807.9 ± 0.4	799 ± 0.4	790 ± 0.5	780.7 ± 0.5
x1 = 0.15	814.2 ± 0.4	805 ± 0.4	795.8 ± 0.4	786.3 ± 0.5
x1 = 0.2	819.9 ± 0.4	810.6 ± 0.4	801.2 ± 0.4	791.5 ± 0.5
x1 = 0.25	825.2 ± 0.4	815.7 ± 0.4	806.1 ± 0.4	796.3 ± 0.4
x1 = 0.3	830.1 ± 0.4	820.5 ± 0.4	810.7 ± 0.4	800.7 ± 0.4
x1 = 0.35	834.6 ± 0.4	824.9 ± 0.4	815 ± 0.4	804.8 ± 0.4
x1 = 0.4	838.8 ± 0.4	829 ± 0.4	818.9 ± 0.4	808.7 ± 0.4
x1 = 0.45	842.7 ± 0.4	832.8 ± 0.4	822.6 ± 0.4	812.2 ± 0.4
x1 = 0.5	846.4 ± 0.4	836.3 ± 0.4	826 ± 0.4	815.5 ± 0.4
x1 = 0.55	849.8 ± 0.4	839.6 ± 0.4	829.2 ± 0.4	818.6 ± 0.4
x1 = 0.6	853 ± 0.4	842.7 ± 0.4	832.1 ± 0.4	821.5 ± 0.4
x1 = 0.6499	856 ± 0.4	845.5 ± 0.4	834.9 ± 0.4	824.1 ± 0.4
x1 = 0.7	858.7 ± 0.4	848.2 ± 0.4	837.5 ± 0.4	826.6 ± 0.4
x1 = 0.7499	861.3 ± 0.3	850.7 ± 0.4	839.9 ± 0.4	829 ± 0.4
x1 = 0.7999	863.7 ± 0.3	853.1 ± 0.4	842.2 ± 0.4	831.2 ± 0.4
x1 = 0.85	866.1 ± 0.3	855.4 ± 0.4	844.5 ± 0.4	833.4 ± 0.4
x1 = 0.9	868.3 ± 0.3	857.5 ± 0.4	846.6 ± 0.4	835.4 ± 0.4
x1 = 0.9499	870.4 ± 0.3	859.5 ± 0.4	848.5 ± 0.4	837.3 ± 0.4
x1 = 1	872.4 ± 0.3	861.5 ± 0.3	850.4 ± 0.4	839.2 ± 0.4

COCCOCCOC [2,5,8-trioxanonane] + CCO
mass density [kg/m3]
Settings	288.15 K	298.15 K	308.15 K	318.15 K
x1 = 0.0045	795.6 ± 0.5	787 ± 0.5	778.4 ± 0.5	769.6 ± 0.5
x1 = 0.0085	797.1 ± 0.4	788.6 ± 0.5	779.9 ± 0.5	771.1 ± 0.5
x1 = 0.0125	798.7 ± 0.4	790.1 ± 0.5	781.5 ± 0.5	772.6 ± 0.5
x1 = 0.0165	800.3 ± 0.4	791.7 ± 0.5	783 ± 0.5	774.1 ± 0.5
x1 = 0.0205	801.8 ± 0.4	793.2 ± 0.5	784.4 ± 0.5	775.6 ± 0.5
x1 = 0.0305	805.5 ± 0.4	796.9 ± 0.4	788.1 ± 0.5	779.2 ± 0.5
x1 = 0.05	812.6 ± 0.4	803.8 ± 0.4	795 ± 0.5	786 ± 0.5
x1 = 0.1	828.7 ± 0.4	819.7 ± 0.4	810.7 ± 0.4	801.5 ± 0.4
x1 = 0.15	842.6 ± 0.4	833.6 ± 0.4	824.5 ± 0.4	815.1 ± 0.4
x1 = 0.2	855 ± 0.4	845.8 ± 0.4	836.5 ± 0.4	827.1 ± 0.4
x1 = 0.25	865.9 ± 0.3	856.6 ± 0.4	847.3 ± 0.4	837.8 ± 0.4
x1 = 0.3	875.7 ± 0.3	866.3 ± 0.3	856.9 ± 0.4	847.3 ± 0.4
x1 = 0.35	884.5 ± 0.3	875 ± 0.3	865.5 ± 0.4	855.8 ± 0.4
x1 = 0.4	892.4 ± 0.3	882.9 ± 0.3	873.2 ± 0.3	863.5 ± 0.4
x1 = 0.45	899.6 ± 0.3	889.9 ± 0.3	880.2 ± 0.3	870.5 ± 0.3
x1 = 0.4999	906 ± 0.3	896.4 ± 0.3	886.7 ± 0.3	876.8 ± 0.3
x1 = 0.55	912 ± 0.3	902.3 ± 0.3	892.5 ± 0.3	882.6 ± 0.3
x1 = 0.5999	917.4 ± 0.3	907.7 ± 0.3	897.8 ± 0.3	887.9 ± 0.3
x1 = 0.65	922.5 ± 0.3	912.6 ± 0.3	902.8 ± 0.3	892.8 ± 0.3
x1 = 0.6999	927.1 ± 0.3	917.2 ± 0.3	907.3 ± 0.3	897.3 ± 0.3
x1 = 0.7499	931.3 ± 0.3	921.4 ± 0.3	911.5 ± 0.3	901.5 ± 0.3
x1 = 0.7999	935.3 ± 0.3	925.4 ± 0.3	915.4 ± 0.3	905.4 ± 0.3
x1 = 0.8499	939 ± 0.3	929 ± 0.3	919.1 ± 0.3	909 ± 0.3
x1 = 0.8998	942.4 ± 0.3	932.4 ± 0.3	922.5 ± 0.3	912.5 ± 0.3
x1 = 0.9498	945.7 ± 0.3	935.7 ± 0.3	925.7 ± 0.3	915.7 ± 0.3
x1 = 1	948.6 ± 0.3	938.7 ± 0.3	928.7 ± 0.3	918.6 ± 0.3

COCCOCCOCCOCCOC [2,5,8,11,14-pentaoxapentadecane] + CCO
mass density [kg/m3]
Settings	288.15 K	298.15 K	308.15 K	318.15 K
x1 = 0.0045	797.9 ± 0.5	789.4 ± 0.5	780.7 ± 0.5	771.9 ± 0.5
x1 = 0.0085	801.4 ± 0.4	792.9 ± 0.5	784.2 ± 0.5	775.3 ± 0.5
x1 = 0.0125	804.8 ± 0.4	796.3 ± 0.5	787.6 ± 0.5	778.7 ± 0.5
x1 = 0.0165	808.2 ± 0.4	799.6 ± 0.5	790.9 ± 0.5	782 ± 0.5
x1 = 0.0205	811.5 ± 0.4	802.9 ± 0.4	794.2 ± 0.5	785.3 ± 0.5
x1 = 0.0305	819.5 ± 0.4	810.8 ± 0.4	802 ± 0.4	793.1 ± 0.5
x1 = 0.05	833.6 ± 0.4	824.9 ± 0.4	816.1 ± 0.4	807.1 ± 0.4
x1 = 0.1	864.1 ± 0.3	855.1 ± 0.4	846.2 ± 0.4	837.1 ± 0.4
x1 = 0.15	888 ± 0.3	878.9 ± 0.3	869.9 ± 0.3	860.7 ± 0.4
x1 = 0.2	907.3 ± 0.3	898.1 ± 0.3	889.1 ± 0.3	879.9 ± 0.3
x1 = 0.25	923.3 ± 0.3	914.1 ± 0.3	905 ± 0.3	895.7 ± 0.3
x1 = 0.3	936.6 ± 0.3	927.4 ± 0.3	918.2 ± 0.3	908.9 ± 0.3
x1 = 0.35	947.9 ± 0.2	938.6 ± 0.3	929.5 ± 0.3	920.2 ± 0.3
x1 = 0.4	957.6 ± 0.2	948.3 ± 0.2	939.2 ± 0.3	929.8 ± 0.3
x1 = 0.45	966 ± 0.2	956.7 ± 0.2	947.5 ± 0.2	938.2 ± 0.3
x1 = 0.5	973.4 ± 0.2	964.1 ± 0.2	954.9 ± 0.2	945.5 ± 0.3
x1 = 0.55	979.9 ± 0.2	970.6 ± 0.2	961.3 ± 0.2	952 ± 0.2
x1 = 0.6	985.7 ± 0.2	976.3 ± 0.2	967.1 ± 0.2	957.8 ± 0.2
x1 = 0.6499	990.9 ± 0.2	981.5 ± 0.2	972.3 ± 0.2	963 ± 0.2
x1 = 0.7	995.6 ± 0.2	986.2 ± 0.2	977 ± 0.2	967.6 ± 0.2
x1 = 0.7498	999.8 ± 0.2	990.4 ± 0.2	981.2 ± 0.2	971.9 ± 0.2
x1 = 0.7999	1003.6 ± 0.2	994.2 ± 0.2	985 ± 0.2	975.6 ± 0.3
x1 = 0.8499	1007 ± 0.2	997.7 ± 0.2	988.4 ± 0.2	979.1 ± 0.3
x1 = 0.8997	1010.2 ± 0.3	1000.9 ± 0.2	991.6 ± 0.3	982.4 ± 0.3
x1 = 0.9496	1013.2 ± 0.3	1003.8 ± 0.3	994.6 ± 0.3	985.3 ± 0.3
x1 = 1	1016 ± 0.3	1006.6 ± 0.3	997.4 ± 0.3	988.1 ± 0.3
